What was measured:
[1] = test system: L55 tumors; test: L55 Humanized Tumor Model with hPBMC challenge; format: in vivo; conditions: for tolerability (body weight): with or without hPBMCs, over the course of the study
Description: Grow the human NSCLC cell line, L55, in RPMI 1640 medium supplemented with 10% fetal bovine serum. Harvest sub-confluent cells with trypsin and rinse twice with growth medium lacking serum. Initiate the growth of subcutaneous tumors by injecting 5×10^6 in a 1:1 mixture of HBSS and MATRIGEL® (BD Biosciences, Franklin Lakes, N.J.) in the rear flank of NOD.Cg-Prkdc^scidIl2rg^tm1Wjl/SzJ mice more commonly known as NOD scid gamma chain knockout mice (NSG) mice (The Jackson Laboratory, Bar Harbour, Me.), which lack T cells, B cells, NK cells, and are deficient in cytokine signaling. When the mean tumor volume reaches approximately 200-300 mm^3, randomize the animals by tumor size and body weight and place into their respective treatment groups as indicated. After randomization, challenge tumor-bearing mice with PBS alone (no PBMCs) or with PBS containing 1×10^7 human PBMCs into the tail vein of recipients.
(§1) Capture tumor size and body weight using Study Director. Estimate tumor volume (V) by using the formula: V=0.536×L×W^2 where L=larger measured diameter and W=smaller of the perpendicular diameter. Transform the tumor volume data to a log scale to equalize variance across time and treatment groups. Analyze the log volume data with a two-way repeated measures analysis of variance by time and treatment using the MIXED procedures in SAS software (Version 9.2). The correlation model for the repeated measures is Spatial Power. Compare treated groups to the control group at each time point. Use the MIXED procedure also separately for each treatment group to calculate adjusted means and standard errors at each time point. Both analyses account for the autocorrelation within each animal and for the loss of data that occurs when animals with large tumors are removed from the study early. Calculate relative changes in tumor volume (% T/C) using the tumor volume measurements taken nearest to the last day of dosing with Example 1A, using the formula % T/C=100×ΔT/ΔC, where T=mean tumor volume of the compound treated group, ΔT=mean tumor volume of the compound treated group minus the mean tumor volume on the baseline day, C=mean tumor volume of the control (vehicle) group, and ΔC=mean tumor volume of the control group minus the mean tumor volume on the baseline day. If ΔT<0, then a tumor regression value is calculated instead of % T/C whereby % Regression=100×ΔT/Tinitial such that Tinital=mean tumor volume on the baseline day.
(§2) Assess antitumor efficacy of Example 1A and LY3300054 alone, or in combination by measuring tumor volume by three dimensional caliper measurements twice a week during the course of the study. Measure body weight twice weekly during the course of the study, as a general indicator of tolerability.
(§3) Formulations for Example 1A and LY3300054: Formulate Example 1A on a weekly basis in 1% HEC/0.25% Tween 80/0.05% Antifoam and store at 4° C. Solublize LY3300054 in phosphate buffered saline and store at 4° C.
The L55 NCLC human cancer cell line is intrinsically resistant to the allo-response associated with the injection of hPBMCs. The goal of these studies is to assess the ability of compounds to potentiate the allo response allowing human T cells to target and restrict the growth of a human L55 tumors in a mouse that lacks an adaptive immune system (NSG mice). […]

[2] = test system: SKOV3 cells; test: Cell viability in SKOV3 cells (CELLTITER-GLO); format: cell-based
Experimental: The purpose of this assay is to evaluate the inhibition of the production of kynurenine, N-formyl-kynurenine and the depletion of tryptophan in IDO1 expressing cancer cells and assess whether compounds are overtly toxic to these cells. Exemplary compounds are tested for the inhibition of IDO1 activity in SKOV3 (ATCC, Cat # HTB-77), an ovarian cancer cell line that intrinsically expresses IDO1. Due to IDO1 expression, SKOV3 cells degrade tryptophan with the concomitant production of kynurenine and compounds are tested for their ability to inhibit the production of kynurenine, N-formyl-kynurenine and the depletion of tryptophan. Optionally, overt toxicity of compounds can be assessed by monitoring cell viability.
Plate SKOV3 cells, an IDO1-expressing ovarian cancer cell line, at 20,000 cells per well in 100 μL of McCoys 5A media (Gibco, Cat #16600-082) supplemented with non-essential amino acids (Gibco, Cat #11140-050), 1 mM sodium pyruvate (Gibco, Cat #11360-070), and 10% fetal bovine serum, complete media, in a 96 well tissue culture plate (BD Biosciences). Then, incubate cells for 16 hours in a 37° C. incubator with 5% CO2. […] Optionally, return original plate(s) to the incubator for an additional 24 hours and measure the viability of cells by adding an equal volume of CELLTITER-GLO® (Promega) and measure luminescence in an PERKIN ELMER® EnVision plate reader.

[3] = test system: Colon26 tumors; test: Mouse Syngeneic Colon26 Model; format: in vivo; conditions: for changes in tumor volume (% T/C) / reduction in body weight compared to baseline: day 20
Experimental: Grow the mouse BALB/c-derived Colon26 colon cancer cell line in RPMI 1640 medium supplemented with 10 mM HEPES, […] sodium pyruvate, and 10% fetal bovine serum. Harvest sub-confluent cells with trypsin and rinse twice with complete growth medium lacking serum. Initiate subcutaneous tumors by injecting 1×10^6 cells resuspended in HBSS in the rear flank of immune-competent BALB/c mice (Envigo, Indianapolis, Ind.). Six days after tumor implantation, randomize animals based on body weight and place into their respective treatment groups using the number of animals per group as indicated.
as §1, §2, §3
Treat female BALB/c mice (n=10) bearing Colon26 tumors with Example 1A twice daily for 21 days by oral gavage at doses of 10, 50, and 100 mg/kg. Start administration of Example 1A six days after tumor implantation, and monitor tumor growth and body weight twice a week for the duration of the treatment period.

[4] = molecular target: T1, IDO1 (Homo sapiens, UniProt P14902); test: In Vivo Target Inhibition Assay (SKOV3X tumors); conditions: mouse, 12 hours after dosing, SKOV3X tumor-bearing mice, read-out: inhibition of kynurenine in tumor
T1 construct: an ovarian cancer cell line that intrinsically expresses IDO1; endogenous in cells; host or cells: SKOV3 (ATCC HTB-77) in culture; SKOV3X (Indiana University Research and Technology Center) as intraperitoneal tumors in athymic nude mice
Description: The purpose of this assay is to evaluate the inhibition of kynurenine production and tryptophan depletion in cancer cells in vivo. SKOV3X (Indiana University Research and Technology Center), an ovarian cancer cell line, intrinsically expresses IDO1 and readily forms tumors in the peritoneal cavity of Athymic Nude-Foxn1^nu mice (Harlan). As a consequence of IDO1 expression, SKOV3X tumors locally deplete tryptophan with the concomitant production of high levels of kynurenine in the tumor microenvironment. The purpose of this assay is to measure the ability of test compounds to inhibit IDO1 evidenced by the clear reduction in kynurenine levels in the tumor.
Culture SKOV3X in McCoys 5A media (Gibco, Cat #16600-082) supplemented with non-essential amino acids (Gibco, Cat #11140-050), 1 mM sodium pyruvate (Gibco, Cat #1360-070) and 10% FBS and incubate at 37° C. in 5% CO2. Trypsinize and isolate cells from culture and resuspend cells in Hank's balanced salt solution (HBSS). Implant 2×10^6 SKOV3X cells into the intraperitoneal cavity of each Athymic Nude-Foxn1^nu mouse (Harlan). Approximately three weeks post-implantation, palpate animals to ensure tumor formation and randomize tumor-bearing mice into vehicle control and compound treatment groups. Administer compound formulated in vehicle containing 1% hydroxyethylcellulose (HEC) and 0.025% TWEEN® 80 and 0.05% Antifoam or vehicle alone by oral gavage. Generate time-course inhibition profile by dosing tumor-bearing animals with a single dose and collect plasma, liver, and tumor samples at 2, 4, 8, 12, and 24 hours post dose. Collect blood into EDTA-containing blood collection tubes (Greiner bio-one, Cat #450474) and centrifuge at 2365×g, isolate plasma, and freeze at −80° C. Isolate liver and tumor fragments, record weights and flash freeze and store at −80° C.
Prepare calibration standards for L-kynurenine and L-tryptophan by first generating stripped matrices, which are plasma and tissue homogenates depleted of L-kynurenine and L-tryptophan by dialysis. […]

[5] = 10 mg/kg twice daily oral gavage
[6] = 50 mg/kg twice daily oral gavage
[7] = 100 mg/kg twice daily oral gavage

T1 sequence (P14902 whole entry): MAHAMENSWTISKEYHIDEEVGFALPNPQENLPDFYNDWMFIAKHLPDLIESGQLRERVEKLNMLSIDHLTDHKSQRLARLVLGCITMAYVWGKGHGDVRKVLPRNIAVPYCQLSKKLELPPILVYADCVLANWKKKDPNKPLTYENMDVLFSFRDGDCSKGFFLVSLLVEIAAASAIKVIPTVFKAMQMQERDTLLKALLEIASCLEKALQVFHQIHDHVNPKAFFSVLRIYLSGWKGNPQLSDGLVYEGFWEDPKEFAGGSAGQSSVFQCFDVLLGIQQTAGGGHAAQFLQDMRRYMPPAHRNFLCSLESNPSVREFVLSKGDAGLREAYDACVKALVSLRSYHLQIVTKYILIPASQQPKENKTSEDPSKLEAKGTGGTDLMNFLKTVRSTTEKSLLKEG

LY3300054: an antibody that binds human PD-L1, light and heavy chains defined by SEQ ID NOs
change in tumor volume (% T/C) ([1]; 10 mg/kg intraperitoneal once a week for 4 weeks, hPBMCs, day 37, vs vehicle alone lacking PBMCs): 75.7% | tolerability (body weight) ([1]; LY3300054 10 mg/kg once a week): No significant tolerability issues

C[C@@H](NC(=O)c1ccc(F)cc1)c1ccc2c(c1)CCN2C(=O)C1CCOCC1 (single isomer, unassigned) [Example 1A]
concentration up to which cell proliferation is not inhibited [2]: ≥ 10 µM | changes in tumor volume (% T/C) [3, 5]: 17.5% | reduction in body weight compared to baseline [3, 5]: 2.5% | changes in tumor volume (% T/C) [3, 6]: 31.2% | reduction in body weight compared to baseline [3, 6]: 8% | changes in tumor volume (% T/C) [3, 7]: 62.6% | reduction in body weight compared to baseline [3, 7]: 2.5% | tolerability (body weight changes) ([3]; 10, 50 and 100 mg/kg twice daily for 21 days, compared to vehicle-treated mice): no significant tolerability issues | % T/C ([1]; 75 mg/kg twice daily oral for 21 days, presence of hPBMCs, day 41, vs vehicle control lacking hPBMCs): 47.6% | tumor growth inhibition ([1]; 75 mg/kg twice daily oral, absence of hPBMCs, compared to vehicle alone without PBMCs): did not result in significant tumor growth inhibition | tolerability (body weight) ([1]; Example 1A 75 mg/kg twice daily): No significant tolerability issues | inhibition at 5 mg/kg ([4]; 5 mg/kg single oral dose): 37% | inhibition at 25 mg/kg ([4]; 25 mg/kg single oral dose): 59% | inhibition at 75 mg/kg ([4]; 75 mg/kg single oral dose): 79%
